# Data reported in patent US20250197351A1, “C4-CARBOXYLIC ACID-S[…] DERIVATIVES AND METHODS OF USING” (priority 2022, published 2025).
# Where “and” joins values, the source holds several entries; their conditions need not be identical. Equal values may be shown once.
# Experiments:
# 5-HT1A receptor = target: T1, 5-HT1A receptor (Homo sapiens, UniProt P08908); test: cAMP-Glo assay of 5-HT1A receptor modulation, CHO-K1/5-HT1A/Ga15 (+5-HT1A) vs CHO-K1/Ga15 (−5-HT1A) cells; assay type: cell-based; details: +5-HT1A vs −5-HT1A CHO-K1 cells; 4 μM forskolin; increasing ligand concentration
# T1 construct: host or cells: CHO-K1 (co-expressing Ga15)
# T1 sequence (P08908 1-422): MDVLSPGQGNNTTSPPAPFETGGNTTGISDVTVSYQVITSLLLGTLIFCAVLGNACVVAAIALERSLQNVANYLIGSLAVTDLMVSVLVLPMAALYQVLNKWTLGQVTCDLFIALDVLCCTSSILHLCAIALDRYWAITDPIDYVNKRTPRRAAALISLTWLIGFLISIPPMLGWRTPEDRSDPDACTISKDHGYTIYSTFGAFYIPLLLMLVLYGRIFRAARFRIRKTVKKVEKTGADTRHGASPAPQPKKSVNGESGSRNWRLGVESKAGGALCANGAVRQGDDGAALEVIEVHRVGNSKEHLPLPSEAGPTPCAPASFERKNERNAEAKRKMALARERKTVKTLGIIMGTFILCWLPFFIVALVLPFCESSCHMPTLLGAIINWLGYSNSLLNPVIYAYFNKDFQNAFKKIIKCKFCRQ
# [1] = target: T2, 5-HT2A receptor (5-HT2AR) (Mus musculus, UniProt P35363); test: Drug-induced Head Twitch Response (HTR); assay type: in vivo; details: 1 mg/kg i.p., 15-to-30-minute window post-drug, relative to vehicle
# T2 construct: host or cells: C57BL/6 mice, in vivo (neuronal receptor)
# [2] = Mouse pharmacokinetic (PK) study, parent compound and psilocin metabolite in plasma; assay type: in vivo; details: for Plasma concentration of psilocin: LLOQ 0.5 ng/mL; for Plasma concentration of C(XX): LLOQ 0.25 ng/mL; for Plasma concentration: parent C(XX), BLQ = below 0.25 ng/mL; for AUC0-tlast/Dose of C(XX) / Cmax/Dose of C(XX) / AUC0-inf/Dose of C(XX): plasma
# Excerpt: Briefly, the procedure was as follows. […] 19, 2022.
# 5-HT2A receptor = 5-HT2A receptor (Homo sapiens, UniProt P28223); test: [3H]ketanserin competition binding assay (SPA); details: 1 nM [3H]ketanserin; control ligands
# [3] = 3 mg/kg oral C(XX), 24 h, individual mice
# [4] = 10 mg/kg oral C(XX), 24 h, individual mice
# [5] = 3 mg/kg oral C(XX), individual mice, 3 mg/kg
# [6] = 10 mg/kg oral C(XX), individual mice, 10 mg/kg
# 5-HT2A receptor, sequence (P28223 whole entry): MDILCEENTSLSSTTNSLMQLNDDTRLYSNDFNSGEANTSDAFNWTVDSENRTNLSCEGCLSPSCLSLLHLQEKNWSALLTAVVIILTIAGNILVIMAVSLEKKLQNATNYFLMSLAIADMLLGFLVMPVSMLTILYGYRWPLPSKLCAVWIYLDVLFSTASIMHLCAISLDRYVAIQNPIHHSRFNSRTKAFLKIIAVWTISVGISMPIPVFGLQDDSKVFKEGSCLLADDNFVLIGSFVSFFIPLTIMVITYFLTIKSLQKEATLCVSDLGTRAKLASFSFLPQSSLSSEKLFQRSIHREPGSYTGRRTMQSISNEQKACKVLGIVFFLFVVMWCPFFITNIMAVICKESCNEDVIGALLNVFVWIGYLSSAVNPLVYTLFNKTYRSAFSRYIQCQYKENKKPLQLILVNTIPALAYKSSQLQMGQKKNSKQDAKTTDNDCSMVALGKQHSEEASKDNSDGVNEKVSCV
# T2 sequence (P35363 whole entry): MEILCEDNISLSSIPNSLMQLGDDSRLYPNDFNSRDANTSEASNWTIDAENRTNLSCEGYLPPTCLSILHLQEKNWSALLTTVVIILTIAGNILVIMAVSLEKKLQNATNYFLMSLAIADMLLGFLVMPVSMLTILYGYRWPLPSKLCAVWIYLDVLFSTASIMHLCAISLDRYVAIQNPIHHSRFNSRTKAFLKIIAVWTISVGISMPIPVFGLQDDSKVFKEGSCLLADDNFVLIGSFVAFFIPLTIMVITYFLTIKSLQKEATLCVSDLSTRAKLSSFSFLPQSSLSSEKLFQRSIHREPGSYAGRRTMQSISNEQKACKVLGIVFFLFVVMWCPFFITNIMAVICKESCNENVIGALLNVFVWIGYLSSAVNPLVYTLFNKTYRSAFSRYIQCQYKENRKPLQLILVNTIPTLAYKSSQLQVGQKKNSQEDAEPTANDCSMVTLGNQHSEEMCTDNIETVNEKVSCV
smiles,measurement,setting,value
CN(C)CCc1c[nH]c2cccc(OC(=O)c3cccc4c3OCCO4)c12 [C(XX)],5-HT1A receptor modulation (reduction of forskolin-induced cAMP),5-HT1A receptor,significant receptor modulation
same,Head Twitch Response (HTR) incidence,[1],Elevated incidences of HTR
same,Plasma concentration of psilocin,"[2]; 1 mg/kg i.v. C(XX), 8 h, individual mice",BLQ
same,Plasma concentration of psilocin,"[2]; 1 mg/kg oral C(XX), 24 h, individual mice",BLQ
same,Plasma concentration of C(XX),"[2]; 3 mg/kg oral C(XX), 0.25 h, individual mice",1.72 ng/mL
same,Plasma concentration of C(XX),"[2]; 3 mg/kg oral C(XX), 0.5 h, individual mice",1.13 ng/mL
same,Plasma concentration of C(XX),"[2]; 3 mg/kg oral C(XX), 4 h, individual mice",No Peak (2×) and BLQ
same,Plasma concentration of C(XX),"[2]; 3 mg/kg oral C(XX), 6 h, individual mice",No Peak and BLQ (2×)
same,Plasma concentration of C(XX),"[2]; 3 mg/kg oral C(XX), 8 h, individual mice",No Peak and BLQ (2×)
same,Plasma concentration of C(XX),[2]; [3],No Peak
same,Plasma concentration of psilocin,[2]; [3],BLQ
same,F of C(XX),"[2]; 3 mg/kg oral C(XX), individual mice",0.816% and 1.08% and 0.962%
same,F of C(XX),"[2]; 3 mg/kg oral C(XX), mean",0.953 ± 0.132%
same,Plasma concentration of C(XX),"[2]; 10 mg/kg oral C(XX), 0.25 h, individual mice",10.3 ng/mL
same,Plasma concentration of C(XX),"[2]; 10 mg/kg oral C(XX), 2 h, individual mice",1.08 ng/mL
same,Plasma concentration of C(XX),"[2]; 10 mg/kg oral C(XX), 4 h, individual mice",BLQ
same,Plasma concentration of C(XX),"[2]; 10 mg/kg oral C(XX), 6 h, individual mice",BLQ
same,Plasma concentration of C(XX),"[2]; 10 mg/kg oral C(XX), 8 h, individual mice",BLQ
same,Plasma concentration of C(XX),[2]; [4],No Peak
same,Plasma concentration of psilocin,[2]; [4],BLQ
same,Plasma concentration,"[2]; 1 mg/kg i.v., 2 h, each animal, 1 mg/kg",1.14 ng/mL
same,Plasma concentration,"[2]; 1 mg/kg i.v., 6 h, each animal",BLQ
same,Plasma concentration,"[2]; 1 mg/kg i.v., 8 h, each animal, 1 mg/kg",BLQ and No (2×)
same,Plasma concentration,"[2]; 1 mg/kg p.o., 2 h, each animal",BLQ
same,Plasma concentration,"[2]; 1 mg/kg p.o., 4 h, each animal",BLQ
same,Plasma concentration,"[2]; 1 mg/kg p.o., 6 h, each animal, 1 mg/kg",No Peak (2×) and BLQ
same,Plasma concentration,"[2]; 1 mg/kg p.o., 8 h, each animal, 1 mg/kg",No Peak (2×) and BLQ
same,Plasma concentration,"[2]; 1 mg/kg p.o., 24 h, each animal",No Peak
same,AUC0-tlast/Dose,"[2]; parent compound in plasma, 1 mg/kg i.v., each animal, 1 mg/kg",48.0 kg·ng·h/mL/mg
same,AUC0-tlast/Dose of C(XX),"[2]; 1 mg/kg i.v. C(XX), mean",52.8 ± 8.30 kg·ng·h/mL/mg
same,Cmax/Dose of C(XX),"[2]; 1 mg/kg p.o. C(XX), mean",0.620 ± 0.0996 kg·ng/mL/mg
same,AUC0-inf/Dose of C(XX),[2]; [5],0.433 kg·ng·h/mL/mg and 0.572 kg·ng·h/mL/mg and 0.510 kg·ng·h/mL/mg
same,AUC0-tlast/Dose of C(XX),[2]; [5],0.406 kg·ng·h/mL/mg and 0.494 kg·ng·h/mL/mg and 0.474 kg·ng·h/mL/mg
same,Cmax/Dose of C(XX),[2]; [5],0.497 kg·ng/mL/mg and 0.573 kg·ng/mL/mg and 0.643 kg·ng/mL/mg
same,AUC0-inf/Dose of C(XX),"[2]; 3 mg/kg oral C(XX), mean",0.505 ± 0.0700 kg·ng·h/mL/mg
same,AUC0-tlast/Dose of C(XX),"[2]; 3 mg/kg oral C(XX), mean",0.458 ± 0.0457 kg·ng·h/mL/mg
same,Cmax/Dose of C(XX),"[2]; 3 mg/kg oral C(XX), mean",0.571 ± 0.0734 kg·ng/mL/mg
same,AUC0-tlast/Dose of C(XX),[2]; [6],0.565 kg·ng·h/mL/mg and 0.499 kg·ng·h/mL/mg and 0.916 kg·ng·h/mL/mg
same,Cmax/Dose of C(XX),[2]; [6],0.299 kg·ng/mL/mg and 0.912 kg·ng/mL/mg and 1.03 kg·ng/mL/mg
same,AUC0-tlast/Dose of C(XX),"[2]; 10 mg/kg oral C(XX), mean",0.660 ± 0.224 kg·ng·h/mL/mg
same,Cmax/Dose of C(XX),"[2]; 10 mg/kg oral C(XX), mean",0.747 ± 0.392 kg·ng/mL/mg
"CN(C)CCc1c[nH]c2cccc(O)c12 [psilocin, reference compound]",5-HT1A receptor modulation (reduction of forskolin-induced cAMP),5-HT1A receptor,reduction in cAMP levels
same,Binding at 5-HT2A receptor in competition assay,5-HT2A receptor,binding
"N[C@@H](Cc1c[nH]c2ccccc12)C(=O)O [tryptophan, reference compound]",5-HT1A receptor modulation (reduction of forskolin-induced cAMP),5-HT1A receptor,no reduction in cellular cAMP levels
same,Binding at 5-HT2A receptor in competition assay,5-HT2A receptor,no binding
